Legend:
[1] = target: T1, Muscarinic acetylcholine receptor M1 (Homo sapiens) (UniProt P11229); experiment: Ratio of binding affinities at human cloned Muscarinic acetylcholine receptor M1 and human cloned Muscarinic acetylcholine receptor M2.
T1 sequence (whole entry): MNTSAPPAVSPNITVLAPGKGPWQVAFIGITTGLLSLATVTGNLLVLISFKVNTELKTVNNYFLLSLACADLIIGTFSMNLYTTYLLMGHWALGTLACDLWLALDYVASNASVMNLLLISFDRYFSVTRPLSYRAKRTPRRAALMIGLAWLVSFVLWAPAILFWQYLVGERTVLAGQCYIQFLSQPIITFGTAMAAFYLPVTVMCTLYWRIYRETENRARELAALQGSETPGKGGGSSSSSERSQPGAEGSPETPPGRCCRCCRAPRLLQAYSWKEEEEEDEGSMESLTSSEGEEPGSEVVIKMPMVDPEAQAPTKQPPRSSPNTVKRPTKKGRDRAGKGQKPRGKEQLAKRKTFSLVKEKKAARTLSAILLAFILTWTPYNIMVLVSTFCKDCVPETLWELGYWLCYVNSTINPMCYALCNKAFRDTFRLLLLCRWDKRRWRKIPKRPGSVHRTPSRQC

[2] = target: T2, Muscarinic acetylcholine receptor M2 (Homo sapiens, UniProt P08172); experiment: Binding affinity against human cloned Muscarinic acetylcholine receptor M2.
T2 sequence (P08172 whole entry): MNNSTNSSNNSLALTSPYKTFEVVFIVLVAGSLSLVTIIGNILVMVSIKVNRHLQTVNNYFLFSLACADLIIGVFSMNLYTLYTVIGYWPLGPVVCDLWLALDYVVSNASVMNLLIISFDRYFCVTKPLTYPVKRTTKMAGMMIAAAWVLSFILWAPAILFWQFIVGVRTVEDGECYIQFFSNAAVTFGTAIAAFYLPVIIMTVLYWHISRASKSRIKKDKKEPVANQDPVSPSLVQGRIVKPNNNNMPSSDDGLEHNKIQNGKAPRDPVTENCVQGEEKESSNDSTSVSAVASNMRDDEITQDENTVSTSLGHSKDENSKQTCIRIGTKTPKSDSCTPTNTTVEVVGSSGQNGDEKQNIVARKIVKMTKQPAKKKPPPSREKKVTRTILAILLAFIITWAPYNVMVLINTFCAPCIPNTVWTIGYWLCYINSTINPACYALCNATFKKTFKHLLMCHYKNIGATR

[3] = target: T2, Muscarinic acetylcholine receptor M2; experiment: Compound was tested for its binding affinity against cloned human Muscarinic acetylcholine receptor M2

Row | Structure (SMILES) | Ratio [1] | Ki [2] [nM] | Ki [3] [nM]
1 | COc1ccc(S(=O)(=O)c2ccc([C@H](C)N3CCN(C4CCCCC4)C[C@H]3C)cc2)cc1 | 44 | 0.3 | 
2 | CCCCC(=O)N1CCC(N2CCN([C@@H](C)c3ccc(S(=O)(=O)c4ccc5c(c4)OCO5)cc3)[C@H](C)C2)CC1 | 15 | 1.3 | 
3 | COc1ccc(S(=O)(=O)c2ccc(CN3CCN(C4CCCCC4)C[C@H]3C)cc2)cc1 | 23 | 0.3 | 
4 | COc1ccc(S(=O)(=O)c2ccc(C(C#N)N3CCN(C4CCCCC4)C[C@@H]3C)cc2)cc1 (stereo not given in full) | 5 | 16 | 
5 | C[C@@H]1CN(C2CCNCC2)CCN1[C@@H](C)c1ccc(S(=O)(=O)c2ccc3c(c2)OCO3)cc1 | 4 | 9 | 
6 | CCNC(=O)N1CCC(N2CCN([C@@H](C)c3ccc(S(=O)(=O)c4ccc5c(c4)OCO5)cc3)[C@H](C)C2)CC1 | 10 | 2.5 | 
7 | C[C@@H]1CN(C2CCN(C(=O)c3ccccc3)CC2)CCN1[C@@H](C)c1ccc(S(=O)(=O)c2ccc3c(c2)OCO3)cc1 | 32 | 0.9 | 
8 | COc1ccc(S(=O)(=O)c2ccc(C(C)N3CCN(C4CCCCC4)CC3)cc2)cc1 (stereo not given) | 10 |  | 
9 | CCCCS(=O)(=O)N1CCC(N2CCN([C@@H](C)c3ccc(S(=O)(=O)c4ccc5c(c4)OCO5)cc3)[C@H](C)C2)CC1 | 198 | 0.2 | 
10 | CCS(=O)(=O)N1CCC(N2CCN([C@@H](C)c3ccc(S(=O)(=O)c4ccc5c(c4)OCO5)cc3)[C@H](C)C2)CC1 | 109 | 0.7 | 
11 | C[C@@H]1CN(C2CCN(S(=O)(=O)c3ccccc3)CC2)CCN1[C@@H](C)c1ccc(S(=O)(=O)c2ccc3c(c2)OCO3)cc1 | 40 | 0.8 | 
12 | COc1ccc(S(=O)(=O)c2ccc(C(C#N)N3CCN(C4CCCCC4)C[C@H]3C)cc2)cc1 (stereo not given in full) | 36 |  | 0.16

Continued, values first:

Row | Ratio [1] | Ki [2] [nM] | Ki [3] [nM] | Structure (SMILES)
13 | 30 | 0.03 |  | C[C@@H]1CN(C2CCCCC2)CCN1[C@H](C)c1ccc(S(=O)(=O)c2ccc3c(c2)OCO3)cc1
14 | 30 | 0.15 |  | COc1ccc(S(=O)(=O)c2ccc([C@@H](C)N3CCN(C4CCCCC4)C[C@H]3C)cc2)cc1
15 | 281 | 0.2 |  | CCCS(=O)(=O)N1CCC(N2CCN([C@@H](C)c3ccc(S(=O)(=O)c4ccc5c(c4)OCO5)cc3)[C@H](C)C2)CC1
16 | 10 | 0.14 |  | COc1ccc(S(=O)(=O)c2ccc([C@@H](C)N3CCN(C4CCCCC4)[C@H](C)C3)cc2)cc1
17 | 10 | 0.04 |  | COc1ccc(S(=O)(=O)c2ccc([C@@H](C)N3CCN(C4CCCCC4)[C@@H](C)C3)cc2)cc1
18 | 61 | 0.03 |  | C[C@@H]1CN(C2CCCCC2)CCN1[C@@H](C)c1ccc(S(=O)(=O)c2ccc3c(c2)OCO3)cc1
